In patent US7211572B2 (Japan Tobacco Inc., priority 2003, dated 2007):
pIC50: −log10 of the molar value. Counter-ions that a name gives are not always drawn.

Biological target: T1, HIV integrase (Human immunodeficiency virus type 1 group M subtype B, UniProt P12497, F1332H)
T1 construct: HIV integrase full length gene; made in house; host or cells: Escherichia coli BL21(DE3), plasmid pET21a-INH
Assay: Determination of enzyme (HIV integrase) inhibitory activity
Format: biochemical
Conditions: recombinant HIV integrase (F185H), strand transfer ELISA, absorbance at 450 nm
Method in brief: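 Full-length integrase with F185H, expressed in E. coli and purified, was reacted for 60 min at 37 °C with compound and biotinylated donor DNA bound to streptavidin plates. Target DNA was added for 10 min, then anti-digoxigenin-peroxidase detection at A450; IC50 from % inhibition versus enzyme-free blank.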

First: O=C1c2c(O)c(=O)c(-c3nccs3)cn2CCN1Cc1cccc(Cl)c1F [Example 292, 2-(3-chloro-2-fluorobenzyl)-9-hydroxy-7-(thiazol-2-yl)-3,4-dihydro-2H-pyrido[1,2-a]pyrazine-1,8-dione]
Second: O=C1c2c(O)c(=O)c(-c3nccs3)cn2CCN1CCCc1cccc(Cl)c1F [Example 312, 2-[3-(3-chloro-2-fluorophenyl)propyl]-9-hydroxy-7-(thiazol-2-yl)-3,4-dihydro-2H-pyrido[1,2-a]pyrazine-1,8-dione]
The pIC50 of the first is higher: greater than 8.00 for the first, 7.00 to 8.00 for the second.

`O=C1c2c(O)c(=O)c(-c3nccs3)cn2CCN1Cc1ccc(Cl)cc1` [Example 293, 2-(4-chlorobenzyl)-9-hydroxy-7-(thiazol-2-yl)-3,4-dihydro-2H-pyrido[1,2-a]pyrazine-1,8-dione] and `O=C1c2c(O)c(=O)c(-c3nccs3)cn2CCN1Cc1ccc(F)cc1` [Example 309, 2-(4-fluorobenzyl)-9-hydroxy-7-(thiazol-2-yl)-3,4-dihydro-2H-pyrido[1,2-a]pyrazine-1,8-dione] fall in the same range of pIC50: 7.00 to 8.00 for the first, 7.00 to 8.00 for the second.

First: O=C1c2c(O)c(=O)c(-c3nccs3)cn2CCN1Cc1ccc(Cl)c(F)c1 [Example 294, 2-(4-chloro-3-fluorobenzyl)-9-hydroxy-7-(thiazol-2-yl)-3,4-dihydro-2H-pyrido[1,2-a]pyrazine-1,8-dione]
Second: O=C1c2c(O)c(=O)c(-c3nccs3)cn2CCN1CCCc1ccc(Cl)c(F)c1 [Example 313, 2-[3-(4-chloro-3-fluorophenyl)propyl]-9-hydroxy-7-(thiazol-2-yl)-3,4-dihydro-2H-pyrido[1,2-a]pyrazine-1,8-dione]
The pIC50 of the first is higher: greater than 8.00 for the first, 7.00 to 8.00 for the second. The first is the more potent here.

First: COc1cc(Cl)ccc1CN1CCn2cc(-c3nccs3)c(=O)c(O)c2C1=O [Example 295, 2-(4-chloro-2-methoxybenzyl)-9-hydroxy-7-(thiazol-2-yl)-3,4-dihydro-2H-pyrido[1,2-a]pyrazine-1,8-dione]
Second: O=C1c2c(O)c(=O)c(-c3nccs3)cn2CCN1Cc1ccccc1Cl [Example 310, 2-(2-chlorobenzyl)-9-hydroxy-7-(thiazol-2-yl)-3,4-dihydro-2H-pyrido[1,2-a]pyrazine-1,8-dione]
The pIC50 of the first is higher: 7.00 to 8.00 for the first, 6.00 to 7.00 for the second. The first is the more potent here.

`Cn1cccc1C(=O)Nc1cn2ccn(Cc3cccc(Cl)c3)c(=O)c2c(O)c1=O` [Example 296, N-[2-(3-chlorobenzyl)-9-hydroxy-1,8-dioxo-1,8-dihydro-2H-pyrido[1,2-a]pyrazin-7-yl]-1-methyl-1H-pyrrole-2-carboxamide] and `O=C(Nc1cn2ccn(Cc3ccc(F)cc3)c(=O)c2c(O)c1=O)c1ccccc1` [Example 304, N-[2-(4-fluorobenzyl)-9-hydroxy-1,8-dioxo-1,8-dihydro-2H-pyrido[1,2-a]pyrazin-7-yl]benzamide] cannot be ordered by pIC50: greater than 8.00 for the first, greater than 8.00 for the second.

`O=C1c2c(O)c(=O)c(-c3nccs3)cn2CCN1CCCc1ccc(Cl)cc1` [Example 297, 2-[3-(4-chlorophenyl)propyl]-9-hydroxy-7-(thiazol-2-yl)-3,4-dihydro-2H-pyrido[1,2-a]pyrazine-1,8-dione hydrochloride] and `O=C1c2c(O)c(=O)c(-c3nccs3)cn2CCN1CCCc1ccc(F)cc1` [Example 314, 2-[3-(4-fluorophenyl)propyl]-9-hydroxy-7-(thiazol-2-yl)-3,4-dihydro-2H-pyrido[1,2-a]pyrazine-1,8-dione] fall in the same range of pIC50: 7.00 to 8.00 for the first, 7.00 to 8.00 for the second.

Compared with `O=C1c2c(O)c(=O)c(-c3nccs3)cn2CCN1CCCc1ccccc1Cl` [Example 298, 2-[3-(2-chlorophenyl)propyl]-9-hydroxy-7-(thiazol-2-yl)-3,4-dihydro-2H-pyrido[1,2-a]pyrazine-1,8-dione hydrochloride], `O=C1c2c(O)c(=O)c(-c3nccs3)cn2CCN1CCCc1ccccc1` [Example 316, 9-hydroxy-2-(3-phenylpropyl)-7-(thiazol-2-yl)-3,4-dihydro-2H-pyrido[1,2-a]pyrazine-1,8-dione hydrochloride] is lower in pIC50: greater than 8.00 for the first, 7.00 to 8.00 for the second. The first is the more potent here.

`O=C1c2c(O)c(=O)c(-c3nccs3)cn2CCN1CCCc1cccc(Cl)c1` [Example 299, 2-[3-(3-chlorophenyl)propyl]-9-hydroxy-7-(thiazol-2-yl)-3,4-dihydro-2H-pyrido[1,2-a]pyrazine-1,8-dione hydrochloride] and `O=C1c2c(O)c(=O)c(-c3nccs3)cn2CCN1CCCc1cccc(F)c1` [Example 315, 2-[3-(3-fluorophenyl)propyl]-9-hydroxy-7-(thiazol-2-yl)-3,4-dihydro-2H-pyrido[1,2-a]pyrazine-1,8-dione] fall in the same range of pIC50: 7.00 to 8.00 for the first, 7.00 to 8.00 for the second.

`Cc1nsc(-c2cn3c(c(O)c2=O)C(=O)N(Cc2cccc(Cl)c2)CC3)n1` [Example 300, 2-(3-chlorobenzyl)-9-hydroxy-7-(3-methyl-1,2,4-thiadiazol-5-yl)-3,4-dihydro-2H-pyrido[1,2-a]pyrazine-1,8-dione hydrochloride] and `O=C1c2c(O)c(=O)c(-c3nccs3)cn2CCN1Cc1cccc(F)c1` [Example 308, 2-(3-fluorobenzyl)-9-hydroxy-7-(thiazol-2-yl)-3,4-dihydro-2H-pyrido[1,2-a]pyrazine-1,8-dione] fall in the same range of pIC50: 7.00 to 8.00 for the first, 7.00 to 8.00 for the second.

`CNC(=O)c1cc(F)ccc1CN1CCn2cc(-c3nccs3)c(=O)c(O)c2C1=O` [Example 301, 5-fluoro-2-[9-hydroxy-1,8-dioxo-7-(thiazol-2-yl)-1,3,4,8-tetrahydro-pyrido[1,2-a]pyrazin-2-ylmethyl]-N-methylbenzamide] and `O=C1c2c(O)c(=O)c(-c3nccs3)cn2CCN1Cc1ccccc1F` [Example 307, 2-(2-fluorobenzyl)-9-hydroxy-7-(thiazol-2-yl)-3,4-dihydro-2H-pyrido[1,2-a]pyrazine-1,8-dione] fall in the same range of pIC50: 6.00 to 7.00 for the first, 6.00 to 7.00 for the second.

`CC(=O)N(CC(C)C)c1cn2ccn(Cc3cccc(Cl)c3)c(=O)c2c(O)c1=O` [Example 302, N-[2-(3-chlorobenzyl)-9-hydroxy-1,8-dioxo-1,8-dihydro-2H-pyrido[1,2-a]pyrazin-7-yl]-N-isobutylacetamide] and `CC(=O)Nc1cn2ccn(Cc3ccc(F)cc3)c(=O)c2c(O)c1=O` [Example 303, N-[2-(4-fluorobenzyl)-9-hydroxy-1,8-dioxo-1,8-dihydro-2H-pyrido[1,2-a]pyrazin-7-yl]acetamide] fall in the same range of pIC50: 7.00 to 8.00 for the first, 7.00 to 8.00 for the second.

Compared with `CS(=O)(=O)Nc1cn2ccn(Cc3ccc(F)cc3)c(=O)c2c(O)c1=O` [Example 305, N-[2-(4-fluorobenzyl)-9-hydroxy-1,8-dioxo-1,8-dihydro-2H-pyrido[1,2-a]pyrazin-7-yl]methanesulfonamide], `O=c1c(-c2ccccn2)cn2ccn(Cc3ccc(F)cc3)c(=O)c2c1O` [Example 306, 2-(4-fluorobenzyl)-9-hydroxy-7-(pyridin-2-yl)-2H-pyrido[1,2-a]pyrazine-1,8-dione trifluoroacetate] is lower in pIC50: greater than 8.00 for the first, 7.00 to 8.00 for the second. The first is the more potent here.

First: O=C1c2c(O)c(=O)c(-c3nccs3)cn2CCN1Cc1ccc2ccccc2c1 [Example 311, 9-hydroxy-2-(naphthalen-2-ylmethyl)-7-(thiazol-2-yl)-3,4-dihydro-2H-pyrido[1,2-a]pyrazine-1,8-dione]
Second: O=C1c2c(O)c(=O)c(-c3ccccn3)cn2CCN1Cc1cccc(Cl)c1F [Example 317, 2-(3-chloro-2-fluorobenzyl)-9-hydroxy-7-(pyridin-2-yl)-3,4-dihydro-2H-pyrido[1,2-a]pyrazine-1,8-dione hydrochloride]
The pIC50 of the first is higher: greater than 8.00 for the first, 7.00 to 8.00 for the second.
